Values quoted from earlier work in paper PMC6099735, “Piplartine Analogues and Cytotoxic Evaluation against Glioblastoma” (Molecules : A Journal of Synthetic Chemistry and Natural …, 2018).

How the values were obtained:
Design in all cases: method as in PMID 25920262
Conditions in all cases: MTT test; cited from earlier work
[1] = tested on: HCT (human colon carcinoma)
[2] = tested on: HL-60 (human leukemic cell)
A2258 (human melanoma) = tested on: A2258 (human melanoma)
[3] = tested on: BF16F10-Nex2 (murine melanoma)
[4] = tested on: HeLa (human cervical carcinoma)
[5] = tested on: U87MG (human glioblastoma)

Measured: IC50

COc1cc(/C=C/C(=O)N2CCC=CC2=O)cc(OC)c1OC [Compound 1, Piplartine]
> 200 µg/mL: all assays above
